Literature values, collected in US20230355701A1, “CO[…] COMPOUNDS” (CAAMTECH, INC., priority 2019, published 2023).
Where two headings read alike, the source gives them in different places.

Columns and labels:
hMOR = hMOR (Homo sapiens, UniProt P35372); details: for functional behaviour at hMOR: BRET functional assay
[1] = target: human kappa opioid receptor (hKOR) (Homo sapiens, UniProt P41145)
[2] = target: T1, human delta opioid receptor (hDOR) (Homo sapiens, UniProt P41143)
[3] = target: T1, human delta opioid receptor (hDOR); remark: listed apart in the source
[4] = mediated through agonist activity at hMOR
[5] = mice
[6] = rats
[7] = dogs, given intraperitoneally or orally
[8] = intracerebroventricular administration
[9] = given intraperitoneally or orally

Chain of hMOR (P35372 whole entry): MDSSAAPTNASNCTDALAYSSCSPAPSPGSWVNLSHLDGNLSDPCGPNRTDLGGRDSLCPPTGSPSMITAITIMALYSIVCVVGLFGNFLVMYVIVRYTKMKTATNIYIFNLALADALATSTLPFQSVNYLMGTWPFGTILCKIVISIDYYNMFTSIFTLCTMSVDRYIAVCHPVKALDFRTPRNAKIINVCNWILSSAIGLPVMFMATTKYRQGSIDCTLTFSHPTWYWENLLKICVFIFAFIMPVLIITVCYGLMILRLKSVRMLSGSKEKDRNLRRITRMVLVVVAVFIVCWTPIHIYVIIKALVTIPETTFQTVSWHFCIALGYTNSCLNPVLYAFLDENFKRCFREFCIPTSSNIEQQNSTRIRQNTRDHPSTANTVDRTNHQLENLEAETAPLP
Chain of human kappa opioid receptor (hKOR) (P41145 whole entry): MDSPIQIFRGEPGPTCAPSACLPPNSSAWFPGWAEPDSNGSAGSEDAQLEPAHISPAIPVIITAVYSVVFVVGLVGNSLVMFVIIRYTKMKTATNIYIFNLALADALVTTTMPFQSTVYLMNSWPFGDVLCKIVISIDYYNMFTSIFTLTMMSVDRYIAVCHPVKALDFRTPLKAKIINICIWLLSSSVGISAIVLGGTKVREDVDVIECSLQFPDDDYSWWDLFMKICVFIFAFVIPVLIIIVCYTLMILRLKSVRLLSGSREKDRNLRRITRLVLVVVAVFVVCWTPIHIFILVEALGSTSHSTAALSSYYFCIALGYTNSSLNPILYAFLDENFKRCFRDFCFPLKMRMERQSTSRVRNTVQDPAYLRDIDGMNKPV
T1 sequence (P41143 whole entry): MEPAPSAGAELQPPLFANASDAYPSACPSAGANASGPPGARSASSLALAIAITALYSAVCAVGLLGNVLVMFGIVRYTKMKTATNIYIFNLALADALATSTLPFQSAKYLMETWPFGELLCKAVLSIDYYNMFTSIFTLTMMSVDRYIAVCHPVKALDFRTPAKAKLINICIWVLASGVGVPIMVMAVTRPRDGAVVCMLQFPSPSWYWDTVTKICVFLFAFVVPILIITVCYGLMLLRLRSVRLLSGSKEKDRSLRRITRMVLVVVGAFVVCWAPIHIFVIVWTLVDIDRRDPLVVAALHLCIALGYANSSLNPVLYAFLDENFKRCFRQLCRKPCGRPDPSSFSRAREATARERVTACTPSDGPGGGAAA

| SMILES | functional behaviour at hMOR (hMOR) | IC50 [1] | functional behaviour at hKOR [1] | functional behaviour at hDOR [2] | binding at hDOR [3] | antagonist activity at hMOR (hMOR; hMOR) | further results |
| --- | --- | --- | --- | --- | --- | --- | --- |
| CC[C@@H]1CN2CC[C@@]3(O)C(=Nc4cccc(OC)c43)[C@@H]2C[C@@H]1/C(=C\OC)C(=O)OC [7-OH, 7-hydroxymitragynine] | partial agonists | micromolar range | competitive antagonists | weak antagonist activity | observed |  | analgesic effects [4]: exhibits analgesic effects |
| CC[C@@H]1CN2CCc3c([nH]c4cccc(OC)c34)[C@@H]2C[C@@H]1/C(=C\OC)C(=O)OC [Mitragynine] | partial agonists | micromolar range | competitive antagonists | weak antagonist activity | negligible |  | analgesic activity ([5]; administered subcutaneously): inactive; analgesic potency [5, 9]: equivalent to codeine; analgesic activity ([6]; administered subcutaneously): inactive; analgesic potency [6, 9]: equivalent to codeine; analgesic potency [7]: equivalent to codeine; analgesic activity [8]: active analgesic |
| C=C[C@H]1CN2CCc3c([nH]c4cccc(OC)c34)[C@@H]2C[C@@H]1/C(=C\OC)C(=O)OC [paynantheine] |  |  |  |  |  | competitive antagonist activity | IC50 (hMOR; hMOR): micromolar range |
| CC[C@@H]1CN2CCc3c([nH]c4cccc(OC)c34)[C@H]2C[C@@H]1/C(=C\OC)C(=O)OC [speciociliatine] |  |  |  |  |  | competitive antagonist activity |  |
| CCC1CN2CCc3c([nH]c4cccc(OC)c34)[C@@H]2C[C@@H]1/C(=C\OC)C(=O)OC (stereo partly drawn) [speciogynine] |  |  |  |  |  | competitive antagonist activity |  |
